ChEMBL document CHEMBL2021833, “Calcitonin gene-related peptide (CGRP) receptor antagonists: pyridine as a replacement for a core amide group” (Bioorg Med Chem Lett, 2012)

Experiments:
Liver microsomes [1] = test: Metabolic stability in human liver microsomes; format: ADME, Microsome
[2] = target: T1, Calcitonin gene-related peptide type 1 receptor (Homo sapiens, UniProt O60894+Q16602); test: Displacement of [I125]CGRP from CGRP receptor in human SK-N-MC cell membrane after 2 hrs by gamma or scintillation counting; format: cell membranes
Liver microsomes [3] = test: Metabolic stability in rat liver microsomes; format: ADME, Microsome
[4] = target: T1, Calcitonin gene-related peptide type 1 receptor; test: Antagonist activity at CGRP receptor in human SK-N-MC cells assessed as inhibition of CGRP-stimulated cAMP production; format: functional, cell-based
[5] = Permeability across human Caco2 cells; format: ADME, cell-based; details: Caco-2, read-out: permeability
[6] = Oral bioavailability in rat; format: ADME, organism-based; details: in vivo
Plasma = test: Fraction unbound in po dosed rat plasma; format: ADME, organism-based; details: in vivo
[7] = target: T1, Calcitonin gene-related peptide type 1 receptor; test: Antagonist activity at CGRP receptor in human SK-N-MC cells assessed as inhibition of CGRP-stimulated cAMP production in presence of plasma; format: functional, cell-based

T1 sequence (Q16602 whole entry, one chain of several): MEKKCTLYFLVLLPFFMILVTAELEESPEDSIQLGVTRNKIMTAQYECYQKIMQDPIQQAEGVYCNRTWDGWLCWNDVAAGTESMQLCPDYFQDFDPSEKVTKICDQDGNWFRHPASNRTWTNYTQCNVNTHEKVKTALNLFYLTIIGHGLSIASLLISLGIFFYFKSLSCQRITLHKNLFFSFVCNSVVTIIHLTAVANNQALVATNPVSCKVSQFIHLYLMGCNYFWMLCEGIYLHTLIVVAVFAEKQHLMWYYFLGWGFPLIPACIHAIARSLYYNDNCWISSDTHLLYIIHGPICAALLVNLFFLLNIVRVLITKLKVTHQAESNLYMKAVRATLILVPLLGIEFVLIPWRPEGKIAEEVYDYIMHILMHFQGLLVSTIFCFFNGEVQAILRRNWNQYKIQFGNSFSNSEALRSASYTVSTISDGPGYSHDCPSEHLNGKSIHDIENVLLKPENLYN

SMILES | Stability (Liver microsomes [1]) | IC50 [2] | Stability (Liver microsomes [3]) | IC50 [4] | further results
Cc1cc(CC(OC(=O)N2CCC(N3Cc4ccccc4NC3=O)CC2)c2cc(C(=O)O)ccn2)cc2cn[nH]c12 (stereo unspecified) | Unstable | 30 nM | Unstable | 28 nM | –
COC(=O)c1ccnc(C(Cc2cc(C)c3[nH]ncc3c2)OC(=O)N2CCC(N3Cc4ccccc4NC3=O)CC2)c1 (stereo unspecified) | Unstable | 4.4 nM | Unstable | – | –
Cc1cc(CC(OC(=O)N2CCC(N3Cc4ccccc4NC3=O)CC2)c2cc(C(=O)N(C)C)ccn2)cc2cn[nH]c12 (stereo unspecified) | Unstable | 0.33 nM | Unstable | – | –
Cc1cc(CC(OC(=O)N2CCC(c3cc4ccccc4[nH]c3=O)CC2)c2ccccn2)cc2cn[nH]c12 (stereo unspecified) | Unstable | 12 nM | Unstable | – | –
Cc1cc(CC(OC(=O)N2CCC(c3cc4ccccc4[nH]c3=O)CC2)c2cc(CN3CCCC3)ccn2)cc2cn[nH]c12 (stereo unspecified) | Unstable | 0.24 nM | Unstable | – | Papp [5]: 4.9 ×10⁻⁶ cm/s
Cc1cc(CC(OC(=O)N2CCC(c3cc4ccccc4[nH]c3=O)CC2)c2cc(CN3CCOCC3)ccn2)cc2cn[nH]c12 (stereo unspecified) | Unstable | 1.2 nM | Unstable | – | Papp [5]: 9.9 ×10⁻⁶ cm/s
Cc1cc(CC(OC(=O)N2CCC(N3Cc4ccccc4NC3=O)CC2)c2ccccn2)cc2c(Br)n[nH]c12 (stereo unspecified) | – | 0.33 nM | – | – | –
Cc1cc(CC(OC(=O)N2CCC(N3Cc4ccccc4NC3=O)CC2)c2ccccn2)cc2c(CN3CCCCC3)n[nH]c12 (stereo unspecified) | – | 6.6 nM | – | – | –
Cc1cc(CC(OC(=O)N2CCC(N3Cc4ccccc4NC3=O)CC2)c2ccccn2)cc2c(CN3CCCC3)n[nH]c12 (stereo unspecified) | – | 6.8 nM | – | – | –
Cc1cc(CC(OC(=O)N2CCC(n3c(=O)[nH]c4ncccc43)CC2)c2cc(C(=O)N(C)C)cc(Cl)n2)cc2cn[nH]c12 (stereo unspecified) | – | 0.071 nM | – | – | Cp(f) (Plasma): 21%; Ki [7]: 0.18 nM; Papp [5]: 1.6 ×10⁻⁶ cm/s
Cc1cc(CC(CC(=O)N2CCC(N3Cc4ccccc4NC3=O)CC2)c2ccccn2)cc2cn[nH]c12 (stereo unspecified) | – | 8.6 nM | – | 8.7 nM | bioavailability [6]: 3%; Papp [5]: 12 ×10⁻⁶ cm/s
Cc1cc(CC(CC(=O)N2CCC(N3Cc4ccccc4NC3=O)CC2)c2ccc(C=O)cn2)cc2cn[nH]c12 (stereo unspecified) | – | 1.1 nM | – | 0.94 nM | –
Cc1cc(CC(OC(=O)N2CCC(N3Cc4ccccc4NC3=O)CC2)c2ccccn2)cc2cn[nH]c12 (stereo unspecified) | Unstable | 1.5 nM | Unstable | 1.9 nM | –
Cc1cc(CC(NC(=O)N2CCC(N3Cc4ccccc4NC3=O)CC2)c2cccc(Br)n2)cc2cn[nH]c12 (stereo unspecified) | – | 0.49 nM | – | 0.82 nM | –
Cc1cc(CC(OC(=O)N2CCC(N3Cc4ccccc4NC3=O)CC2)c2cccc(Br)n2)cc2cn[nH]c12 (stereo unspecified) | Unstable | 0.38 nM | Unstable | 0.46 nM | –
Cc1cc(CC(OC(=O)N2CCC(N3Cc4ccccc4NC3=O)CC2)c2cc3ccccc3cn2)cc2cn[nH]c12 (stereo unspecified) | Unstable | 0.46 nM | Unstable | 0.63 nM | –
Cc1cc(CC(NC(=O)N2CCC(N3Cc4ccccc4NC3=O)CC2)c2cccc(-c3ccccc3)n2)cc2cn[nH]c12 (stereo unspecified) | – | 12 nM | – | 14 nM | –
Cc1cc(CC(OC(=O)N2CCC(N3Cc4ccccc4NC3=O)CC2)c2cc(C=O)ccn2)cc2cn[nH]c12 (stereo unspecified) | Unstable | 0.21 nM | Unstable | 0.28 nM | –
Cc1cc(C[C@@H](NC(=O)N2CCC(N3Cc4cccc(F)c4NC3=O)CC2)C(=O)N2CCC(N3CCCCC3)CC2)cc2cn[nH]c12 | – | – | – | – | Ki [2]: 0.013 nM

More lines, in order of falling IC50 [2], values ahead:

Stability (Liver microsomes [1]) | IC50 [2] | Stability (Liver microsomes [3]) | IC50 [4] | SMILES | further results
– | 35 nM | – | 20 nM | Cc1cc(CC(CC(=O)N2CCC(N3Cc4cccc(F)c4NC3=O)CC2)c2ccccn2)cc2cn[nH]c12 (stereo unspecified) | bioavailability [6]: 3%; Papp [5]: 21 ×10⁻⁶ cm/s
– | 24 nM | – | 30 nM | Cc1cc(CC(CC(=O)N2CCC(c3cc4ccccc4[nH]c3=O)CC2)c2ccccn2)cc2cn[nH]c12 (stereo unspecified) | Papp [5]: 3.4 ×10⁻⁶ cm/s
– | 12 nM | – | 18 nM | Cc1ccc(C(CC(=O)N2CCC(N3Cc4ccccc4NC3=O)CC2)Cc2cc(C)c3[nH]ncc3c2)nc1 (stereo unspecified) | bioavailability [6]: 1%; Papp [5]: 6.4 ×10⁻⁶ cm/s
– | 10 nM | – | 13 nM | CCc1ccnc(C(CC(=O)N2CCC(N3Cc4ccccc4NC3=O)CC2)Cc2cc(C)c3[nH]ncc3c2)c1 (stereo unspecified) | bioavailability [6]: 2%; Papp [5]: 14 ×10⁻⁶ cm/s
– | 7.9 nM | – | 6 nM | Cc1cc(CC(CC(=O)N2CCC(N3Cc4ccccc4NC3=O)CC2)c2ccc(CO)cn2)cc2cn[nH]c12 (stereo unspecified) | –
– | 4.4 nM | – | 8.2 nM | Cc1cccnc1C(CC(=O)N1CCC(N2Cc3ccccc3NC2=O)CC1)Cc1cc(C)c2[nH]ncc2c1 (stereo unspecified) | –
– | 3.8 nM | – | 3.4 nM | Cc1cccc(C(Cc2cc(C)c3[nH]ncc3c2)NC(=O)N2CCC(N3Cc4ccccc4NC3=O)CC2)n1 (stereo unspecified) | –
– | 3.1 nM | – | 4.1 nM | Cc1cc(CC(NC(=O)N2CCC(N3Cc4ccccc4NC3=O)CC2)c2ccccn2)cc2cn[nH]c12 (stereo unspecified) | –
Unstable | 3 nM | Unstable | – | Cc1cc(CC(OC(=O)N2CCC(N3Cc4ccccc4NC3=O)CC2)c2cc(C#N)ccn2)cc2cn[nH]c12 (stereo unspecified) | –
– | 2 nM | – | 1.4 nM | Cc1cc(CC(NC(=O)N2CCC(N3Cc4ccccc4NC3=O)CC2)c2ccc3ccccc3n2)cc2cn[nH]c12 (stereo unspecified) | –
Unstable | 2 nM | Unstable | 2.1 nM | Cc1cc(CC(OC(=O)N2CCC(N3Cc4ccccc4NC3=O)CC2)c2cc(CO)ccn2)cc2cn[nH]c12 (stereo unspecified) | –
– | 1.9 nM | – | – | Cc1cc(CC(OC(=O)N2CCC(N3Cc4ccccc4NC3=O)CC2)c2ccccn2)cc2c(CN3CCOCC3)n[nH]c12 (stereo unspecified) | –
– | 1.8 nM | – | 1.3 nM | Cc1cc(CC(CC(=O)N2CCC(N3Cc4ccccc4NC3=O)CC2)c2ccc(CN3CCCCC3)cn2)cc2cn[nH]c12 (stereo unspecified) | Papp [5]: < 1.5 ×10⁻⁶ cm/s
Unstable | 1.4 nM | Unstable | 4.8 nM | Cc1cc(CC(OC(=O)N2CCC(N3Cc4ccccc4NC3=O)CC2)c2ccc3ccccc3n2)cc2cn[nH]c12 (stereo unspecified) | –
– | 1.3 nM | – | – | Cc1cc(CC(OC(=O)N2CCC(N3Cc4ccccc4NC3=O)CC2)c2ccccn2)cc2c(C=O)n[nH]c12 (stereo unspecified) | –
– | 0.82 nM | – | 1 nM | Cc1cc(CC(NC(=O)N2CCC(N3Cc4ccccc4NC3=O)CC2)c2cc3ccccc3cn2)cc2cn[nH]c12 (stereo unspecified) | –
– | 0.39 nM | – | – | Cc1cc(CC(OC(=O)N2CCC(N3Cc4ccccc4NC3=O)CC2)c2ccccn2)cc2c(Cl)n[nH]c12 (stereo unspecified) | –
Unstable | 0.28 nM | Unstable | 0.099 nM | Cc1cc(CC(OC(=O)N2CCC(N3Cc4ccccc4NC3=O)CC2)c2cc(C(=O)N3CCCCC3)ccn2)cc2cn[nH]c12 (stereo unspecified) | –
– | 0.28 nM | – | 0.34 nM | Cc1cc(CC(OC(=O)N2CCC(c3cc4ccccc4[nH]c3=O)CC2)c2cc(C(=O)N(C)C)cc(Cl)n2)cc2cn[nH]c12 (stereo unspecified) | bioavailability [6]: 4.5%; Cp(f) (Plasma): 6%; Ki [7]: 3.3 nM; Papp [5]: 5.2 ×10⁻⁶ cm/s
Unstable | 0.27 nM | Unstable | – | Cc1cc(CC(OC(=O)N2CCC(N3Cc4ccccc4NC3=O)CC2)c2cc(-c3ccncc3)ccn2)cc2cn[nH]c12 (stereo unspecified) | –
– | 0.24 nM | – | – | Cc1cc(CC(OC(=O)N2CCC(N3Cc4ccccc4NC3=O)CC2)c2ccccn2)cc2c(-c3ccccc3)n[nH]c12 (stereo unspecified) | –
Unstable | 0.16 nM | Unstable | 0.1 nM | Cc1cc(CC(OC(=O)N2CCC(c3cc4ccccc4[nH]c3=O)CC2)c2cc(CN3CCCCC3)ccn2)cc2cn[nH]c12 (stereo unspecified) | Papp [5]: 8.5 ×10⁻⁶ cm/s
Unstable | 0.1 nM | Unstable | 0.02 nM | Cc1cc(CC(OC(=O)N2CCC(N3Cc4ccccc4NC3=O)CC2)c2cc(CN3CCCCC3)ccn2)cc2cn[nH]c12 (stereo unspecified) | –
Unstable | 0.095 nM | Unstable | 0.042 nM | Cc1cc(CC(OC(=O)N2CCC(c3cc4ccccc4[nH]c3=O)CC2)c2cc(CN3CCCCCC3)ccn2)cc2cn[nH]c12 (stereo unspecified) | Papp [5]: 2.8 ×10⁻⁶ cm/s
– | 0.093 nM | – | – | Cc1cc(CC(OC(=O)N2CCC(N3CCc4ccccc4NC3=O)CC2)c2cc(C(=O)N(C)C)cc(Cl)n2)cc2cn[nH]c12 (stereo unspecified) | Papp [5]: < 1.5 ×10⁻⁶ cm/s
– | 0.077 nM | – | 0.064 nM | Cc1cc(C[C@@H](OC(=O)N2CCC(c3cc4ccccc4[nH]c3=O)CC2)c2cc(C(=O)N(C)C)cc(Cl)n2)cc2cn[nH]c12 | –
